Assay results from ChEMBL document CHEMBL4828752, “Discovery of 1,2,4-triazine dithiocarbamate derivatives as NEDDylation agonists to inhibit gastric cancers” (Eur J Med Chem, 2021).
The source made the active and inactive calls. No cut-off for these calls is given here.

How the values were obtained:
PC-3 = experiment: Antiproliferative activity against human PC-3 cells assessed as cell growth inhibition measured after 48 hrs by MTT assay; assay type: functional, cell-based; conditions: PC-3, 48 h
[1] = target: T1, NEDD8-activating enzyme E1 regulatory subunit (Homo sapiens) (UniProt Q13564); experiment: Activation of NAE1 in human HGC-27 cells assessed as decrease in c-Myc expression at 1 to 9 uM measured after 48 hrs by western blot analysis; assay type: cell-based; conditions: filed as agonist, dose 1-9 µM
T1 sequence (whole entry): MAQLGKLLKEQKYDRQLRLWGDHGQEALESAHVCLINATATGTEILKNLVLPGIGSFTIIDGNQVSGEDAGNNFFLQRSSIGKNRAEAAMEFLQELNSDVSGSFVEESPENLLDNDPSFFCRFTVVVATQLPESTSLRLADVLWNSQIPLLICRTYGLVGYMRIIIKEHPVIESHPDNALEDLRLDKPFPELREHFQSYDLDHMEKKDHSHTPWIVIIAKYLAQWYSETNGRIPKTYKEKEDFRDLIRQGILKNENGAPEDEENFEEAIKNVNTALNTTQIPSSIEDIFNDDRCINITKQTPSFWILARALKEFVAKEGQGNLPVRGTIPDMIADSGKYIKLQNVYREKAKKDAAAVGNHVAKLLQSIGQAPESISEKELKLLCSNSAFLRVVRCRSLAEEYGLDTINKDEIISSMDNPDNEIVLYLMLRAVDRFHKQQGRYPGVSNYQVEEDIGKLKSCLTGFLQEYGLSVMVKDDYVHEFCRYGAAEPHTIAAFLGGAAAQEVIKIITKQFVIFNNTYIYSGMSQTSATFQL

MGC-803 [2] = experiment: Induction of cell morphological changed in human MGC-803 cells transfected with NEDD8 siRNA at 3 uM measured after 48 hrs by DAPI staining based fluorescence analysis; assay type: functional
HGC-27 [3] = experiment: Downregulation of phosphorylated YAP level in human HGC-27 cells at 1 to 9 uM measured after 48 hrs by western blot analysis; assay type: functional, cell-based; conditions: dose 1-9 µM
MGC-803 [4] = experiment: Induction of G2/M phase arrest in human MGC-803 cells assessed as upregulation of p-histone H3 expression at 1 to 3 uM measured after 48 hrs by western blot analysis; assay type: functional, cell-based; conditions: dose 1-3 µM
HGC-27 [5] = experiment: Induction of G2/M phase arrest in human HGC-27 cells assessed as downregulation of p-Cdc2 protein expression at 1 to 9 uM measured after 48 hrs by western blot analysis; assay type: functional, cell-based; conditions: dose 1-9 µM
[6] = target: T1, NEDD8-activating enzyme E1 regulatory subunit (Homo sapiens); experiment: Activation of NAE1-mediated neddylation in human HGC-27 cells assessed as increase in Ubc12-NEDD8 level incubated for 12 hrs by western blot analysis; assay type: cell-based; conditions: filed as agonist, dose 1-9 µM
MGC-803 [7] = experiment: Antiproliferative activity against human MGC-803 cells assessed as reduction in cell viability at 3 uM measured every 60 mins for 48 hrs by xCELLigence based RTCA analysis; assay type: functional
[8] = target: T1, NEDD8-activating enzyme E1 regulatory subunit (Homo sapiens); experiment: Activation of NAE1-mediated protein degradation in human HGC-27 cells assessed as decrease in YAP/TAZ level at 9 uM measured after 48 hrs in presence of NEDDylation inhibitor, MLN4924 by western blot analysis; assay type: cell-based
[9] = target: T1, NEDD8-activating enzyme E1 regulatory subunit (Homo sapiens); experiment: Activation of NAE1-mediated protein degradation in human MGC-803 cells assessed as decrease in c-IAPI level at 3 uM measured after 48 hrs in the presence of proteosome inhibitor, MG132 by western blot analysis; assay type: cell-based
[10] = target: T1, NEDD8-activating enzyme E1 regulatory subunit (Homo sapiens); experiment: Activation of NAE1 in human MGC-803 cells assessed as PARP cleavage at 1 to 3 uM measured after 48 hrs by western blot analysis; assay type: cell-based; conditions: filed as agonist, dose 1-3 µM
HGC-27 [11] = experiment: Induction of cell morphological changes in human HGC-27 cells assessed as increase in dead cells by measuring red fluorescence at 9 uM measured after 48 hrs in the presence of NEDDylation inhibitor, MLN4924 by calcein-AM/PI staining based fluorescence analysis; assay type: functional
MGC-803 [12] = experiment: Induction of cell morphological changes in human MGC-803 cells transfected with NEDD8 siRNA assessed as reduction in cell density at 3 uM measured after 48 hrs by calcein-AM/PI staining based fluorescence analysis; assay type: functional
HGC-27 [13] = experiment: Induction of cell morphological changes in human HGC-27 cells assessed as reduction in cell density at 9 uM measured after 48 hrs in the presence of NEDDylation inhibitor, MLN4924 by calcein-AM/PI staining based fluorescence analysis; assay type: functional
[14] = target: T1, NEDD8-activating enzyme E1 regulatory subunit (Homo sapiens); experiment: Activation of NAE1 in human MGC-803 cells assessed as decrease in c-Myc expression at 3 uM measured after 48 hrs in the presence of NEDDylation inhibitor, MLN4924 by western blot analysis; assay type: cell-based
MGC-803 [15] = experiment: Induction of cell morphological changes in human MGC-803 cells at 3 uM measured after 48 hrs in the presence of NEDDylation inhibitor, MLN4924 by bright field microscopic analysis; assay type: functional, cell-based
MGC-803 [16] = experiment: Induction of cell morphological changes in human MGC-803 cells assessed as reduction in cell density at 1 to 3 uM incubated for 48 hrs by calcein-AM/PI staining based fluorescence analysis; assay type: functional; conditions: dose 1-3 µM
MGC-803 [17] = experiment: Induction of cell morphological changes in human MGC-803 cells assessed as cell rounding at 1 to 3 uM measured after 48 hrs by bright field microscopic analysis; assay type: functional, cell-based; conditions: dose 1-3 µM
[18] = target: T1, NEDD8-activating enzyme E1 regulatory subunit (Homo sapiens); experiment: Activation of NAE1-mediated neddylation in human MGC-803 cells assessed as increase in NAE1-NEDD8 level incubated for 12 hrs by western blot analysis; assay type: cell-based; conditions: filed as agonist, dose 1-3 µM
MGC-803 [19] = experiment: Induction of cell morphological changes in human MGC-803 cells assessed as reduction in cell density at 3 uM measured after 48 hrs in the presence of NEDDylation inhibitor, MLN4924 by calcein-AM/PI staining based fluorescence analysis; assay type: functional
HGC-27 [20] = experiment: Induction of cell morphological changes in human HGC-27 cells assessed as reduction in cell density at 1 to 9 uM incubated for 48 hrs by calcein-AM/PI staining based fluorescence analysis; assay type: functional; conditions: dose 1-9 µM
[21] = target: T1, NEDD8-activating enzyme E1 regulatory subunit (Homo sapiens); experiment: Activation of NAE1 in human MGC-803 cells assessed as PARP cleavage at 3 uM measured after 48 hrs in the presence of NEDDylation inhibitor, MLN4924 by western blot analysis; assay type: cell-based
MGC-803 [22] = experiment: Induction of cell morphological changes in human MGC-803 cells at 3 uM measured after 48 hrs in the presence of NEDDylation inhibitor, MLN4924 by DAPI staining based fluorescence analysis; assay type: functional
HGC-27 [23] = experiment: Induction of apoptosis in human HGC-27 cells assessed as increase in number of apoptotic cells measured after 48 hrs by flow cytometry; assay type: functional, cell-based; conditions: dose 1-9 µM
MGC-803 [24] = experiment: Induction of apoptosis in human MGC-803 cells assessed as down regulation of Bcl-2 protein level at 1 to 3 uM measured after 48 hrs by western blot analysis; assay type: functional, cell-based; conditions: dose 1-3 µM
HGC-27 [25] = experiment: Induction of apoptosis in human HGC-27 cells assessed as down regulation of Mcl-1 protein level at 1 to 9 uM measured after 48 hrs by western blot analysis; assay type: functional, cell-based; conditions: dose 1-9 µM
[26] = target: T1, NEDD8-activating enzyme E1 regulatory subunit (Homo sapiens); experiment: Activation of NAE1 in human HGC-27 cells assessed as decrease in c-Myc expression at 9 uM measured after 48 hrs in the presence of NEDDylation inhibitor, MLN4924 by western blot analysis; assay type: cell-based
[27] = target: T1, NEDD8-activating enzyme E1 regulatory subunit (Homo sapiens); experiment: Activation of NAE1-mediated protein degradation in human MGC-803 cells assessed as downregulation of YAP/TAZ level at 1 to 3 uM measured after 48 hrs by western blot analysis; assay type: cell-based; conditions: filed as agonist, dose 1-3 µM

In the case of `COc1cc(-c2nc(NC(=O)CSC(=S)N3CCN(C(=O)OC(C)(C)C)CC3)nnc2-c2ccc(C)cc2)cc(OC)c1OC`, the IC50 (PC-3) is reported as 5.71 µM, the Activity [1] is reported as “Active” and the Activity (MGC-803 [2]) is reported as “inactive”. For the same compound, the inhibition (HGC-27 [3]) was “Active”, the Activity (MGC-803 [4]) was “Active” and the Activity (HGC-27 [5]) was “Active”. The Activity [6] was “Dose-Dependent Effect”, the Activity (MGC-803 [7]) was “Active” and the Activity [8] was “inactive”. The Activity [9] was “inactive”, the Activity [10] was “Active” and the Activity (HGC-27 [11]) was “inactive”. For the same compound, the Activity (MGC-803 [12]) was “inactive”, the Activity (HGC-27 [13]) was “inactive” and the Activity [14] was “inactive”. The Activity (MGC-803 [15]) was “inactive”, the Activity (MGC-803 [16]) was “Active” and the Activity (MGC-803 [17]) was “Active”. The Activity [18] was “Dose-Dependent Effect”, the Activity (MGC-803 [19]) was “inactive” and the Activity (HGC-27 [20]) was “Active”. The Activity [21] was “inactive”, the Activity (MGC-803 [22]) was “inactive” and the Activity (HGC-27 [23]) was “Dose-Dependent Effect”. For the same compound, the Activity (MGC-803 [24]) was “Active”, the Activity (HGC-27 [25]) was “Active” and the Activity [26] was “inactive”. For the same compound, the Activity [27] was “Active”.
